According to PubChem BioAssay AID2060620 (Molecular Pharmacology Branch, DTP, NCI, 2025):

Test system: 328373-195-R-J1-PDC complex spheroids, viability % test/control
Assay: Anticancer human tumor 328373-195-R-J1-PDC patient-derived head and neck squamous carcinoma cell line growth inhibition [CLK]
Conditions: for IC50: curve of first compound; for viability, T/C: stronger effect = lower value; active = viability on the fitted dose curve at most 10% of control; inactive = the rest
Outline: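 Multi-cell-type spheroids combined patient-derived tumor cells with HUVEC endothelial cells and human mesenchymal stem cells. Paired agents were dosed in half-log steps down from about clinical Cmax, or from 10 microM where Cmax was unknown.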

[1] = second compound 0.0316 µM, first compound 0.0316 µM
[2] = second compound 0.0316 µM, first compound 0.1 µM
[3] = second compound 0.1 µM, first compound 0.0316 µM
[4] = second compound 0.1 µM, first compound 0.1 µM
[5] = second compound 0.316 µM, first compound 0.0316 µM
[6] = second compound 0.316 µM, first compound 0.1 µM
[7] = second compound 1 µM, first compound 0.0316 µM
[8] = second compound 1 µM, first compound 0.1 µM
[9] = second compound 3.16 µM, first compound 0.0316 µM
[10] = second compound 3.16 µM, first compound 0.1 µM
[11] = second compound 10 µM, first compound 0.0316 µM
[12] = second compound 10 µM, first compound 0.1 µM
[13] = second compound 0.0316 µM, first compound 0.316 µM
[14] = second compound 0.0316 µM, first compound 1 µM
[15] = second compound 0.0316 µM, first compound 3.16 µM
[16] = second compound 0.0316 µM, first compound 10 µM
[17] = second compound 0.1 µM, first compound 0.316 µM
[18] = second compound 0.1 µM, first compound 1 µM
[19] = second compound 0.1 µM, first compound 3.16 µM
[20] = second compound 0.1 µM, first compound 10 µM
[21] = second compound 0.316 µM, first compound 0.316 µM
[22] = second compound 0.316 µM, first compound 1 µM
[23] = second compound 0.316 µM, first compound 3.16 µM
[24] = second compound 0.316 µM, first compound 10 µM
[25] = second compound 1 µM, first compound 0.316 µM
[26] = second compound 1 µM, first compound 1 µM
[27] = second compound 1 µM, first compound 3.16 µM
[28] = second compound 1 µM, first compound 10 µM
[29] = second compound 3.16 µM, first compound 0.316 µM
[30] = second compound 3.16 µM, first compound 1 µM
[31] = second compound 3.16 µM, first compound 3.16 µM
[32] = second compound 3.16 µM, first compound 10 µM
[33] = second compound 10 µM, first compound 0.316 µM
[34] = second compound 10 µM, first compound 1 µM
[35] = second compound 10 µM, first compound 3.16 µM
[36] = second compound 10 µM, first compound 10 µM
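Note: spheroids exposed to the agents for 7 days.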

Cn1ncnc1[C@H]1c2n[nH]c(=O)c3cc(F)cc(c23)N[C@@H]1c1ccc(F)cc1 + CN1CCN(c2cc(C(=O)Nc3cc4cc(-c5cnn(C)c5)ccc4cn3)ccn2)CC1
< 0.316 nM: IC50 (second compound 0.316 µM) | IC50 (second compound 1 µM) | IC50 (second compound 3.16 µM) | IC50 (second compound 10 µM)
inactive: viability, T/C (second compound 0.0316 µM, first compound 0.000316 µM) 93.5% | viability, T/C (second compound 0.0316 µM, first compound 0.001 µM) 84.3% | viability, T/C (second compound 0.0316 µM, first compound 0.00316 µM) 91.8% | viability, T/C (second compound 0.0316 µM, first compound 0.01 µM) 119% | viability, T/C [1] 95.1% | viability, T/C [2] 82.2% | viability, T/C (second compound 0.1 µM, first compound 0.000316 µM) 80.5% | viability, T/C (second compound 0.1 µM, first compound 0.001 µM) 78.7% | viability, T/C (second compound 0.1 µM, first compound 0.00316 µM) 83.9% | viability, T/C (second compound 0.1 µM, first compound 0.01 µM) 86.8% | viability, T/C [3] 85.8% | viability, T/C [4] 59.7% | viability, T/C (second compound 0.316 µM, first compound 0.000316 µM) 29.9% | viability, T/C (second compound 0.316 µM, first compound 0.001 µM) 33.9% | viability, T/C (second compound 0.316 µM, first compound 0.00316 µM) 28.4% | viability, T/C (second compound 0.316 µM, first compound 0.01 µM) 27% | viability, T/C [5] 21.4% | viability, T/C [6] 18.4%
> 100 nM: IC50 (second compound 0.0316 µM) | IC50 (second compound 0.1 µM)
active: viability, T/C (second compound 1 µM, first compound 0.000316 µM) 0.11% | viability, T/C (second compound 1 µM, first compound 0.001 µM) 2% | viability, T/C (second compound 1 µM, first compound 0.00316 µM) 2.06% | viability, T/C (second compound 1 µM, first compound 0.01 µM) 0.15% | viability, T/C [7] 1.32% | viability, T/C [8] 2.11% | viability, T/C (second compound 3.16 µM, first compound 0.000316 µM) 0.08% | viability, T/C (second compound 3.16 µM, first compound 0.001 µM) 0.77% | viability, T/C (second compound 3.16 µM, first compound 0.00316 µM) 4.18% | viability, T/C (second compound 3.16 µM, first compound 0.01 µM) 0.08% | viability, T/C [9] 1.73% | viability, T/C [10] 1.99% | viability, T/C (second compound 10 µM, first compound 0.000316 µM) 0.17% | viability, T/C (second compound 10 µM, first compound 0.001 µM) 0.14% | viability, T/C (second compound 10 µM, first compound 0.00316 µM) 1.47% | viability, T/C (second compound 10 µM, first compound 0.01 µM) 0.12% | viability, T/C [11] 2.53% | viability, T/C [12] 1.76%

Nc1ccn(C2OC(CO)C(O)C2(F)F)c(=O)n1 (stereo unspecified) + CN1CCN(c2cc(C(=O)Nc3cc4cc(-c5cnn(C)c5)ccc4cn3)ccn2)CC1
active: viability, T/C [1] 3.79% | viability, T/C [2] 2.43% | viability, T/C [13] 4.26% | viability, T/C [14] 2.86% | viability, T/C [15] 2.91% | viability, T/C [16] 3.08% | viability, T/C [3] 4.42% | viability, T/C [4] 3.79% | viability, T/C [17] 4.8% | viability, T/C [18] 3.59% | viability, T/C [19] 3.13% | viability, T/C [20] 4.21% | viability, T/C [5] 4.28% | viability, T/C [6] 2.41% | viability, T/C [21] 3.74% | viability, T/C [22] 1.82% | viability, T/C [23] 1.62% | viability, T/C [24] 5.1% | viability, T/C [7] 0.09% | viability, T/C [8] 1.02% | viability, T/C [25] 2.83% | viability, T/C [26] 0.09% | viability, T/C [27] 2.43% | viability, T/C [28] 0.07% | viability, T/C [9] 1.17% | viability, T/C [10] 1.23% | viability, T/C [29] 0.12% | viability, T/C [30] 1.22% | viability, T/C [31] 0.16% | viability, T/C [32] 0.38% | viability, T/C [11] 2.37% | viability, T/C [12] 0.17% | viability, T/C [33] 0.7% | viability, T/C [34] 0.17% | viability, T/C [35] 1.04% | viability, T/C [36] 0.35%
< 31.6 nM: IC50 (second compound 0.0316 µM) | IC50 (second compound 0.1 µM) | IC50 (second compound 0.316 µM) | IC50 (second compound 1 µM) | IC50 (second compound 3.16 µM) | IC50 (second compound 10 µM)

O=c1[nH]cc(F)c(=O)[nH]1 + CN1CCN(c2cc(C(=O)Nc3cc4cc(-c5cnn(C)c5)ccc4cn3)ccn2)CC1
< 31.6 nM: IC50 (second compound 0.316 µM) | IC50 (second compound 1 µM) | IC50 (second compound 3.16 µM) | IC50 (second compound 10 µM)
active: viability, T/C [22] 7.98% | viability, T/C [23] 6.74% | viability, T/C [24] 5.92% | viability, T/C [7] 0.13% | viability, T/C [8] 4.38% | viability, T/C [25] 0.56% | viability, T/C [26] 0.05% | viability, T/C [27] 2.73% | viability, T/C [28] 0.78% | viability, T/C [9] 0.03% | viability, T/C [10] 3.69% | viability, T/C [29] 4.78% | viability, T/C [30] 0.03% | viability, T/C [31] 0.16% | viability, T/C [32] 0.08% | viability, T/C [11] 0.03% | viability, T/C [12] 0.64% | viability, T/C [33] 2.65% | viability, T/C [34] 0.06% | viability, T/C [35] 4.08% | viability, T/C [36] 1.3%
inactive: viability, T/C [1] 76.7% | viability, T/C [2] 26.6% | viability, T/C [13] 13.9% | viability, T/C [14] 9.49% | viability, T/C [15] 10.6% | viability, T/C [16] 13.6% | viability, T/C [3] 74.7% | viability, T/C [4] 32.6% | viability, T/C [17] 12.5% | viability, T/C [18] 10.6% | viability, T/C [19] 10.2% | viability, T/C [20] 16.8% | viability, T/C [5] 25.9% | viability, T/C [6] 14.3% | viability, T/C [21] 14.6%
58.4 nM: IC50 (second compound 0.0316 µM)
62.1 nM: IC50 (second compound 0.1 µM)
